{"source": "patent US4215112A", "about": "“Tripeptides and methods” (Ortho Pharmaceutical Corporation, priority 1979, dated 1980)", "key": {"[1]": {"system": "immunocyte-precursor cells", "test": "in vitro induction of differentiation of immunocyte-precursor cells (general statement)", "assay_type": "cell-based", "from_the_text": "Stated another way, the subject polypeptides have the capability of inducing differentiation of both Th-1^+ T-lymphocytes and Bu-1^+ B-lymphocytes.\nThe carrier may be any of the well-known carriers for this purpose including normal saline solutions, preferably with a protein diluent such as bovine serum albumin to prevent adsorptive losses to glassware at these low concentrations. The polypeptides of this invention are generally active when parenterally administered at a range of above about 1 μg/kg of body weight. For the treatment of DiGeorge Syndrome, the polypeptides may be parenterally administered at a rate of about 1 to about 100 μg/kg of body weight. Generally, the same range of dosage amounts may be used in treatment of the other conditions or diseases mentioned."}, "[2]": {"system": "Bu-1+ B lymphocytes (B-precursor cells of bone marrow)", "test": "chicken induction assay, Bu-1+ B cells", "assay_type": "cell-based", "from_the_text": "(§1) To determine the activity and characteristics of the tripeptide amide produced in Example I, the following chicken induction assay was employed. This assay is described in greater detail in Brand, et al., Science, 193, 319-321 (July 23, 1976) and references contained therein.\n(§2) Bone marrow from newly-hatched chickens was selected as a source of inducible cells because it lacks an appreciable number of Bu-1^+ or Th-1^+ cells. Pooled cells from femur and tibiotarsus of five newly-hatched chicks of strain SC (Hy-Line) were fractionated by ultracentrifugation on a five-layer discontinuous bovine serum albumin (BSA) gradient. Cells from the two lighter layers were combined, washed, and suspended for incubation at a concentration of 5×10^6 cells per milliliter with the appropriate concentration of test polypeptide in RPMI 1630 medium supplemented with 15 mM hepes, 5 percent γ-globulin-free fetal calf serum, deoxyribonuclease (14 to 18 unit/ml), heparin (5 unit/ml), penicillin (100 unit/ml), and streptomycin (100 μg/ml). Controls were incubated with BSA (1 μg/ml) or medium alone. After incubation, the cells were tested in the cytotoxicity assay using chicken Cl and guinea pig C2 to C9 complement fractions as described in the reference article. The proportion of Bu-1^+ or Th-1^+ cells in each layer was calculated as a cytotoxicity index, 100 (a-b)/a, where a and b are the percentages of viable cells in the complement control and test preparation, respectively. The percentage of cells induced was obtained by subtracting the mean values in the control incubations without inducing agents (usually 1 to 3 percent) from those of the test inductions.\n(§3) This high dose of ubiquitin inactivates the ubiquitin receptors and thus prevents the induction of cells by any agent which acts through these receptors."}, "[3]": {"system": "Th-1+ T lymphocytes (T-precursor cells of bone marrow)", "test": "chicken induction assay, Th-1+ T cells", "assay_type": "cell-based", "from_the_text": "as §1, §2, §3"}, "[4]": {"system": "T cells and B cells", "details": "literature / copending application; cited from earlier work"}, "[5]": {"system": "T cells", "details": "E rosette assay; literature; cited from earlier work"}, "[6]": {"details": "bone marrow cells of newly-hatched chickens, cytotoxicity assay"}}, "note": "Where a SMILES comes first, the peptide text is derived from it. Where no end group is shown, it is not given here. [ ]: non-standard residue; d: D form. Glx = not defined here; Sar = CNCC(=O)O"}
{"compound": "CN(CC(=O)N[C@@H](CCC(N)=O)C(N)=O)C(=O)[C@@H](N)CCCCN", "note": "[amidated tripeptide of Example I, H--LYS--SAR--GLN--NH2] (H-Lys-[Sar]-Gln-NH2)", "values": [{"measurement": "concentration at which active", "setting": "[1]", "result": "about 100 pg/ml"}, {"measurement": "concentration inducing the differentiation of Bu-1+ B lymphocytes", "setting": "[2]; [6]", "result": 100, "unit": "pg/mL"}, {"measurement": "effect of added ubiquitin on induction of Bu-1+ B cells by the test polypeptide", "setting": "[2]; ubiquitin 100 μg/ml added", "result": "inhibition of induction"}, {"measurement": "concentration inducing the differentiation of Th-1+ T lymphocytes", "setting": "[3]; [6]", "result": 100, "unit": "pg/mL"}, {"measurement": "effect of added ubiquitin on induction of Th-1+ T cells by the test polypeptide", "setting": "[3]; ubiquitin 100 μg/ml added", "result": "inhibition of induction"}]}
{"compound": "C[C@@H](NC(=O)[C@@H](N)CCCCN)C(=O)N[C@@H](CCC(N)=O)C(N)=O", "note": "[H--LYS--D--ALA--GLN--NH2] (H-Lys-[dA]-Gln-NH2)", "values": [{"measurement": "biological activity: induction of differentiation of Bu-1+ B cells", "setting": "[2]; result in words", "result": "Biological activity similar to that of ubiquitin was observed"}, {"measurement": "biological activity: induction of differentiation of Th-1+ T cells", "setting": "[3]; result in words", "result": "Biological activity similar to that of ubiquitin was observed"}]}
{"compound": "H--SAR--LYS--SAR--GLN--NH2", "values": [{"measurement": "differentiation of T cells and B cells", "setting": "[4]", "result": "same activity as FTS"}]}
{"compound": "GLX--ALA--LYS--SER--GLN--GLY--GLY--SER--ASN (Glx-AKSQGGSN; reading uncertain; also: N-terminal Glx: Gln or pyroglutamic acid, printed as GLX--ALA--LYS--SER--GLN--GLY--GLY--SER--ASN) [FTS, nonapeptide isolated from porcine serum; GLX is glutamine or pyroglutamic acid]", "values": [{"measurement": "differentiation of T cells versus B cells", "setting": "[5]", "result": "selectively differentiated T cells (and not B cells)"}, {"measurement": "differentiation of T cells and B cells", "setting": "[4]", "result": "differentiated both T cells and B cells"}]}
{"compound": "H--ALA--LYS--SER--GLN--OH (H-AKSQ-OH) [tetrapeptide of copending application Ser. No. 960,550]", "values": [{"measurement": "differentiation of T cells and B cells", "setting": "[4]", "result": "same activity as FTS"}]}
